Data set [1] concerns MCF7. The data set is described as follows: Antitumor activity against human MCF7 cells xenografted in mouse model assessed as tumor growth regression in presence of fulvestrant and palbociclib. Format: functional, cell-based.
Data set [2] deals with MCF7. The experiment in a line: Antitumor activity against human MCF7 cells xenografted in mouse model assessed as tumor growth regression in presence of palbociclib. Format: functional, cell-based. Background: Xenograft models place foreign cells or tissue in a host animal.
Data set [3] deals with MCF7. The data set is described as follows: Antitumor activity against human MCF7 cells xenografted in mouse model assessed as tumor growth inhibition. It counts as functional, cell-based.
The subject of data set [4] is MCF7. The experiment in a line: Antitumor activity against human MCF7 cells xenografted in mouse model assessed as tumor growth regression in presence of fulvestrant. It counts as functional, cell-based.
A short description of data set [5]: Oral bioavailability in Wistar Han rat at […]. Format: ADME, organism-based. Particulars: in vivo.
Data set [6] in a line: Tmax in Wistar Han rat assessed as 2,2-difluoroethyl (3S)-3-{[2'-amino-5-fluoro-2-(morpholin-4-yl)-4,5'-bipyrimidin-6-yl]amino}-3-(hydroxymethyl)pyrrolidine-1-carboxylate level at […], po. Format: ADME, organism-based. The conditions noted are these: in vivo.
Data set [7] can be described thus: Tmax in Wistar Han rat at […], po. Format: ADME, organism-based. Particulars: in vivo.
The nature of data set [8]: Cmax in Wistar Han rat assessed as 2,2-difluoroethyl (3S)-3-{[2'-amino-5-fluoro-2-(morpholin-4-yl)-4,5'-bipyrimidin-6-yl]amino}-3-(hydroxymethyl)pyrrolidine-1-carboxylate level at […], po. The conditions noted are these: in vivo. Format: ADME, organism-based.
Data set [9] can be described thus: Cmax in Wistar Han rat at […], po. It counts as ADME, organism-based. Particulars: in vivo.
Data set [10] in a line: AUC (0 to t) in Wistar Han rat assessed as 2,2-difluoroethyl (3S)-3-{[2'-amino-5-fluoro-2-(morpholin-4-yl)-4,5'-bipyrimidin-6-yl]amino}-3-(hydroxymethyl)pyrrolidine-1-carboxylate level at […], po. Format: ADME, organism-based. Particulars: in vivo.
Data set [11] is described as follows: AUC (0 to t) in Wistar Han rat at […], po. Particulars: in vivo. Format: ADME, organism-based.
A short description of data set [12]: AUC (0 to t) in Wistar Han rat assessed as 2,2-difluoroethyl (3S)-3-{[2'-amino-5-fluoro-2-(morpholin-4-yl)-4,5'-bipyrimidin-6-yl]amino}-3-(hydroxymethyl)pyrrolidine-1-carboxylate level at 2.3 mg/kg, iv. It counts as ADME, organism-based. The conditions noted are these: in vivo. Further details: dose 2.3 mg/kg.
Data set [13] is described as follows: AUC (0 to t) in Wistar Han rat at 2.3 mg/kg, iv. It counts as ADME, organism-based. Also noted: dose 2.3 mg/kg. Particulars: in vivo.
Data set [14] is described as follows: Half life in Wistar Han rat at 2.3 mg/kg, iv. Format: ADME, organism-based. The conditions noted are these: in vivo.
Data set [15] in a line: Volume of distribution at steady state in Wistar Han rat at 2.3 mg/kg, iv. It counts as ADME, organism-based. Particulars: in vivo, read-out: Vdss.
Data set [16] is described as follows: Plasma clearance in Wistar Han rat at 2.3 mg/kg, iv. Format: ADME, organism-based.
Data set [17] in a line: Kinetic solubility of compound at pH 7.4 after 24 hrs by LC/MS/MS analysis. Format: physicochemical. The conditions noted are these: buffer, read-out: Kinetic_solubility.
A short description of data set [18]: Thermodynamic solubility of compound at pH 7.4. It counts as physicochemical. The conditions noted are these: buffer, read-out: Therm_solubility.
In another data set the test system is MDA-MB-361. The experiment in a line: Antitumor activity against human MDA-MB-361 cells xenografted in mouse model assessed as tumor growth inhibition. It counts as functional, cell-based.
A short description of data set [19]: Half life in rat intestinal S9 fraction assessed as 2,2-difluoroethyl (3S)-3-{[2'-amino-5-fluoro-2-(morpholin-4-yl)-4,5'-bipyrimidin-6-yl]amino}-3-(hydroxymethyl)pyrrolidine-1-carboxylate level by enzymatic hydrolysis assay. It counts as ADME, subcellular, Intestine.
Data set [20] is described as follows: Half life in human intestinal S9 fraction assessed as 2,2-difluoroethyl (3S)-3-{[2'-amino-5-fluoro-2-(morpholin-4-yl)-4,5'-bipyrimidin-6-yl]amino}-3-(hydroxymethyl)pyrrolidine-1-carboxylate level by enzymatic hydrolysis assay. It counts as ADME, subcellular, Intestine.

Values after ≈ are worked out from the molar mass of the structure shown. Active and inactive are the calls of the source.

The term bioavailability denotes dose-corrected exposure relative to a reference, in per cent. Lower therefore signals poor availability. Usually Tmax stands for the time at which the peak concentration occurs. One may read the Cmax as the peak of the concentration-time curve. By AUC(0-t) is commonly meant the area under the concentration-time curve up to a stated or last time point. One may read the half-life as the time needed for the level to fall by half in the phase considered. A lower half-life goes with rapid decline. As a reminder, the clearance is the volume of plasma or blood freed of the substance per unit of time. Read a high clearance as efficient removal. `Nc1ncc(-c2nc(N3CCOCC3)nc(N[C@@]3(COP(=O)(O)O)CCN(C(=O)OCC(F)F)C3)c2F)cn1`: the result in the data set on MCF7 [1], with MCF7 [2] and in the data set on MCF7 [4] was Active. Further, the TGI result in the data set with MCF7 [3] and in the data set on MDA-MB-361 was “Active” in each case. Also, the bioavailability in [5] came out at 0.14%. The Tmax is 120 min in [6] and 10.2 min in data set [7]. Moreover, the Cmax in [8] was 290 ng/mL; in data set [9], 4.3 ng/mL. The AUCt was 1500 ng·h/mL in [10] and 900 ng·h/mL in data set [12]. Besides, the AUC(0-t) in data set [11] was 2.9 ng·h/mL; in [13], 430 ng·h/mL. The half-life in data set [14] is 16.8 min. The Vd in data set [15] turned out to be 0.34 L/kg. The clearance in data set [16] is 89 mL/min/kg. Besides, the solubility kinetic at 24 h in [17] amounted to 310 µg/mL (≈ 0.536 mM). For the same compound, the solubility thermodynamic in data set [18] was 6200 µg/mL (≈ 10.7 mM). For the same compound, the t1/2 in [19] was 86 min; in data set [20] it was 14 min.

The values are drawn from ChEMBL document CHEMBL4706640, “Structure-Based Drug Design and Synthesis of PI3Kα-Selective Inhibitor (PF-06843195)” (J Med Chem, 2021).
